{
  "source": "patent US12491249B2",
  "about": "“Methods for manufacturing phthalocyanine dye conjugates and stable conjugates” (Rakuten Medical, Inc., priority 2015, dated 2025)",
  "key": {"[1]": {"conditions": "cited from earlier work"}, "[2]": {"tested_on": "A431 cells", "assay": "EGF-IR700 light-dependent killing", "format": "cell-based", "conditions": "for light-dependent killing after conjugate pre-exposure: 1 μg/mL", "method": "To assess if EGF-IR700 cell killing was assessed in A431 cells. A431 cells were seeded at 5000 cells per well in 96 well white clear bottom dishes one day prior to the experiment. The following day, the A431 cells were washed three times with EMEM supplemented with 1% Penicillin/Streptomycin (serum free media). The A431 cells were then washed one time with serum free media, then incubated with serum free media containing 1 sg/mL of EGF-IRDye 700DX for one hour at 4° C. or serum free media only. As a control to assess the specificity of the activity, in one condition A431 cells were pre-incubated with 100 sg/mL unconjugated cetuximab diluted in serum free media for one hour at 4° C. prior to incubation with 1 sg/mL of EGF-IRDye 700DX. The cells were then washed one time with serum free media.\nTo induce IR700-dependent killing, the cells were then illuminated with a 690 nm laser with 32 J/cm^2 of light or protected from light (“no light”). Cell death was evaluated as described in Example 9 using CellTox Green. The normalized percentage of dead cells was calculated by subtracting all wells by the percentage of dead cells from the no light serum free media only control, dividing by EGF-IRDye 700DX at 32 J/cm^2 minus the no light serum-free media only control, and multiplied 100.\nThe effect of EGF-IRDye 700DX pre-exposure to white light versus green light on photo-activated cell killing was also evaluated in A431 cells. EGF-IRDye 700DX was pre-exposed to different types of light and the effect of light treatment on photo-activated killing activity was evaluated. Five microliters of EGF-IRDye 700DX conjugate (DAR 2) was added per clear HPLC vial at a EGF-IRDye 700DX concentration of 1.14 mg/mL. The following conditions were tested: (1) the antibody-IRDye 700DX conjugate stored at 4° C. protected from light (“4° C.”, used as the control); (2). antibody-IRDye 700DX conjugate placed in a clear glass HPLC tube under a Halogen lamp at 2500 lux for 24 hrs (“white light”); (3) antibody-IRDye 700DX conjugate placed in a clear glass HPLC tube wrapped in aluminum foil to protect from light exposure under Halogen lamp at 2500 lux for 24 hrs (“no light”, used as a control for thermal heating effects on the formation of aggregates); and (4) antibody-IRDye 700DX conjugate placed in a clear glass HPLC tube and exposed to green LED lamp at 2500 lux for 24 hrs (“green light”).\nTo assess cell killing activity, A431 cells were washed two times with serum free media, and incubated in serum free media alone for one hour at 4° C. The cells were then washed one time with serum free media and incubated with serum free media alone or serum free media containing 1 μg/mL of EGF-IRDye 700DX (“no light”), serum free media containing 1 μg/mL of EGF-IRDye 700DX pre-exposed to white light (“2500 Lux White light”), or serum free media containing 1 μg/mL EGF-IRDye 700DX pre-exposed to green light for one hour at 4° C. (“2500 Lux Green light”). The cells were then washed one time with serum free media.\nTo induce cell killing, the cells were either protected from light (light dose 0 J/cm^2) or were illuminated with a 690 nm laser with different light dosimetries (8 J/cm^2, 32 J/cm^2 or 64 J/cm)."}},
  "note": "Like-named read-outs stand apart in the source and are kept apart here.",
  "data": [
    {"compound": "C=Cc1c(C)c2cc3nc(c(CC(=O)N[C@@H](CC(=O)[O-])C(=O)[O-])c4[nH]c(cc5nc(cc1[nH]2)C(C)=C5CC)c(C)c4C(=O)[O-])[C@@H](CCC(=O)[O-])[C@@H]3C.[Na+].[Na+].[Na+].[Na+]", "note": "[NPe6/Laserphyrin, mono-L-aspartylchlorin e6]", "values": [
      {"measurement": "extinction coefficient", "setting": "[1]; at 654 nm", "result": 40000, "unit": "M⁻¹ cm⁻¹"}
    ]},
    {"compound": "EGF-IRDye 700DX: Human recombinant epidermal growth factor (EGF) conjugated to IRDye 700DX", "values": [
      {"measurement": "cell killing", "setting": "[2]; 1 sg/mL, 690 nm 32 J/cm^2 or no light", "result": "light-dependent killing"},
      {"measurement": "cell killing after receptor blocking", "setting": "[2]; cells pre-exposed to 100 sg/mL unconjugated cetuximab, 1 sg/mL conjugate", "result": "blocked light-dependent cell killing"},
      {"measurement": "light-dependent killing after conjugate pre-exposure", "setting": "[2]; green light, green LED lamp 2500 lux 24 hours", "result": "comparable to that of the “no light” EGF-IRDye 700DX"},
      {"measurement": "light-dependent killing after conjugate pre-exposure", "setting": "[2]; protected from light, thermal heating under halogen lamp 2500 lux 24 hours", "result": "exhibited light-dependent killing"},
      {"measurement": "light-dependent killing after conjugate pre-exposure", "setting": "[2]; white light, halogen lamp 2500 lux 24 hours", "result": "no longer exhibited light-dependent killing activity"}
    ]},
    {"compound": "Photofrin", "values": [
      {"measurement": "extinction coefficient", "setting": "[1]; at 630 nm", "result": 1200, "unit": "M⁻¹ cm⁻¹"}
    ]}
  ]
}
